Results taken from patent US20250235543A1, “MODIFIED PROTEINS AND PROTEIN DEGRADERS” (Cullgen (Shanghai), Inc., priority 2021, published 2025).
Like-named read-outs stand apart in the source and are kept apart here.

What was measured:
cyclin D1 = experiment: Cyclin D1 percentage degradation in Calu-1 cells (immunoblotting); format: cell-based; settings: 16 hours
Procedure, shortened: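 Cells were rinsed once in cold PBS and lysed in cold RIPA buffer containing protease and phosphatase inhibitors, with gentle agitation at 4° C. for 30 min. Lysates were spun at 13,000 rpm for 10 min at 4° C., protein was measured by BCA, and samples were boiled in Laemmli buffer at 99° C. for 5 min before SDS-PAGE immunoblotting.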

CDK4 = target: T1, CDK4 (Homo sapiens, UniProt P11802); experiment: CDK4 percentage degradation in Calu-1 cells (immunoblotting); format: cell-based; settings: for inhibition at 10 µM: read-out: CDK4 Degradation (10 μM); for inhibition at 0.2 µM: read-out: CDK4 Degradation (200 nM)
T1 construct: endogenous in cells; host or cells: Calu-1
T1 sequence (P11802 2-303 limits assumed): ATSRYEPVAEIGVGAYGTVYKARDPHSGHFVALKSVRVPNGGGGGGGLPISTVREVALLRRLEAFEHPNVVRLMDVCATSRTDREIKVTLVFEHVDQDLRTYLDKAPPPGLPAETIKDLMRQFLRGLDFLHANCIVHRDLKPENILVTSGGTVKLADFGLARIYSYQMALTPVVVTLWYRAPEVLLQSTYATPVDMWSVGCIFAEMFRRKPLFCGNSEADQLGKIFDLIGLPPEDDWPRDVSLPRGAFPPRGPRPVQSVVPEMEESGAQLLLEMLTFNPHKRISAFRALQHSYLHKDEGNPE
T1 sequence (P24385 whole entry partner): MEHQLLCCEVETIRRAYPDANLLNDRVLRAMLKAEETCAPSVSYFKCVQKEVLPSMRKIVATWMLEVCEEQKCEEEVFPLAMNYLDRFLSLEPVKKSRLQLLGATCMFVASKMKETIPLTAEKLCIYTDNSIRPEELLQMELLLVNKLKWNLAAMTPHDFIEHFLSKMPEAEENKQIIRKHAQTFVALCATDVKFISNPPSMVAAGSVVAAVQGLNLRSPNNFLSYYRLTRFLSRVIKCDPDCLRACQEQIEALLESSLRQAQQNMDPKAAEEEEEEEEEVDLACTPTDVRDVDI
T1 sequence (Q16531 2-1140 limits assumed, further chain): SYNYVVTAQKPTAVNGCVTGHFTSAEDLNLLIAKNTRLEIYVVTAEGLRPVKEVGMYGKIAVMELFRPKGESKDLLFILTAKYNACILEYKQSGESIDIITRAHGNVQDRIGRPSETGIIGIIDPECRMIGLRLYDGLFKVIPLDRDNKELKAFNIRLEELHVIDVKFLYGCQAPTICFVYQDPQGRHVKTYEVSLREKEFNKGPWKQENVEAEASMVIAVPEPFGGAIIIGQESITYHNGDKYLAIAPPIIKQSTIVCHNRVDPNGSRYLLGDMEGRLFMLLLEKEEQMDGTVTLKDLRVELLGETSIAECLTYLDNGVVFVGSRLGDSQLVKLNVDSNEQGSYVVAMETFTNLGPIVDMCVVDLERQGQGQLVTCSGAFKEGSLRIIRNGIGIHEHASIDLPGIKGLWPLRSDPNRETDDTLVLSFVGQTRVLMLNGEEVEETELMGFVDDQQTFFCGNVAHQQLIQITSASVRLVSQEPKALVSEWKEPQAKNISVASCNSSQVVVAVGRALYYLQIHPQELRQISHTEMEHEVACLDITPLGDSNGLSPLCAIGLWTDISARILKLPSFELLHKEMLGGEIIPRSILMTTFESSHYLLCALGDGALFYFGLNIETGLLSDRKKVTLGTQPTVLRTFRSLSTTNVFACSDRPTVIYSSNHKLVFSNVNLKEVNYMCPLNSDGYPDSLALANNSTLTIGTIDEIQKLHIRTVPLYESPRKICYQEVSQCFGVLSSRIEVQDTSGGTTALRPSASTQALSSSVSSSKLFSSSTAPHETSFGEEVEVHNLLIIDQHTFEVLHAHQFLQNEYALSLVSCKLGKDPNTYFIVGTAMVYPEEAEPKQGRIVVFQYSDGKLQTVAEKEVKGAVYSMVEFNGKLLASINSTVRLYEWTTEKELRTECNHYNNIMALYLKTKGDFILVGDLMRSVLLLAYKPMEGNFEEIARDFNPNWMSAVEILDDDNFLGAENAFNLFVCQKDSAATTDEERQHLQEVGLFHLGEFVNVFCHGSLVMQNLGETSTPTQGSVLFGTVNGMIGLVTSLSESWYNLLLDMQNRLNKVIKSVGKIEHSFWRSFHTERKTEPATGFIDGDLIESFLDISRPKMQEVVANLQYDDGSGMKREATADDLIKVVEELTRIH
Procedure, shortened: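 Cultured cells were rinsed once in cold PBS and lysed in cold RIPA buffer containing protease and phosphatase inhibitors, with gentle agitation at 4° C. for 30 min. Lysates were centrifuged at 13,000 rpm for 10 min at 4° C., and protein was quantified by BCA. Samples were then separated by SDS-PAGE, detected with ECL, and the CDK4 bands quantified in Image Lab.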

SMILES | CyclinD1 Degradation (10 μM) (cyclin D1) | inhibition at 10 µM (CDK4; Calu-1 cells, 16 hours) [%] | CyclinD1 Degradation (200 nM) (cyclin D1) | inhibition at 0.2 µM (CDK4; Calu-1 cells, 200 nM, 16 hours) [%] | inhibition at 0.2 µM (CDK4; Calu-1, 16 h) [%]
Cc1nc(NC(=O)c2ccccc2NC(=O)CCOCCOCCNC(=O)CN2CCN(c3ccc(Nc4ncc5cc6n(c5n4)C4(CCCCC4)CNC6=O)nc3)CC2)sc1C [CPD-323, N-(4,5-Dimethylthiazol-2-yl)-2-(3-(2-(2-(2-(4-(6-((6′-oxo-7′,8′-dihydro-6′H-spiro[cyclohexane-1,9′-pyrazino[1′,2′:1,5]pyrrolo[2,3-d]pyrimidin]-2′-yl)amino)pyridin-3-yl)piperazin-1-yl)acetamido)ethoxy)ethoxy)propanamido)benzamide] | A (protein percentage degradation >= 80%) | 50 to 80 |  |  | 
CC(=O)c1c(C)c2cnc(Nc3ccc(N4CCN(CC(=O)NCCOCCOCCOCCOCCNC(=O)CNc5ccc(C(=O)Nc6ncc(C)s6)c(C)c5)CC4)cn3)nc2n(C2CCCC2)c1=O [CPD-013, 4-((20-(4-(6-((6-Acetyl-8-cyclopentyl-5-methyl-7-oxo-7,8-dihydropyrido[2,3-d]pyrimidin-2-yl)amino)pyridin-3-yl)piperazin-1-yl)-2,19-dioxo-6,9,12,15-tetraoxa-3,18-diazaicosyl)amino)-2-methyl-N-(5-methylthiazol-2-yl)benzamide] |  |  | D (protein percentage degradation <30%) | < 30 | 
CC(=O)c1c(C)c2cnc(Nc3ccc(N4CCN(CC(=O)NCCOCCOCCC(=O)Nc5ccc(Br)cc5C(=O)Nc5nc(C)c(C)s5)CC4)cn3)nc2n(C2CCCC2)c1=O [CPD-145, 2-(3-(2-(2-(2-(4-(6-((6-Acetyl-8-cyclopentyl-5-methyl-7-oxo-7,8-dihydropyrido[2,3-d]pyrimidin-2-yl)amino)pyridin-3-yl)piperazin-1-yl)acetamido)ethoxy)ethoxy)propanamido)-5-bromo-N-(4,5-dimethylthiazol-2-yl)benzamide] |  |  | D (protein percentage degradation <30%) | < 30 | 
CC(=O)c1c(C)c2cnc(Nc3ccc(N4CCN(CC(=O)NCCOCCOCCC(=O)Nc5ccccc5C(=O)Nc5ncc(C)o5)CC4)cn3)nc2n(C2CCCC2)c1=O [CPD-066, 2-(3-(2-(2-(2-(4-(6-((6-Acetyl-8-cyclopentyl-5-methyl-7-oxo-7,8-dihydropyrido[2,3-d]pyrimidin-2-yl)amino)pyridin-3-yl)piperazin-1-yl)acetamido)ethoxy)ethoxy)propanamido)-N-(5-methyloxazol-2-yl)benzamide] |  |  | D (protein percentage degradation <30%) | < 30 | 
Cc1nc(NC(=O)c2ccccc2NC(=O)CCCCCNC(=O)CN2CCN(Cc3ccc(Nc4ncc(F)c(-c5cc(F)c6nc(C)n(C(C)C)c6c5)n4)nc3)CC2)sc1C [CPD-276, N-(4,5-Dimethylthiazol-2-yl)-2-(6-(2-(4-((6-((5-fluoro-4-(4-fluoro-1-isopropyl-2-methyl-1H-benzo[d]imidazol-6-yl)pyrimidin-2-yl)amino)pyridin-3-yl)methyl)piperazin-1-yl)acetamido)hexanamido)benzamide] | D (protein percentage degradation < 30%) | < 30 |  |  | 
CC(=O)c1c(C)c2cnc(Nc3ccc(N4CCN(C(=O)CCOCCOCCNc5cccc(C(=O)Nc6nc(C)c(C)s6)c5C)CC4)cn3)nc2n(C2CCCC2)c1=O [CPD-121, 3-((2-(2-(3-(4-(6-((6-Acetyl-8-cyclopentyl-5-methyl-7-oxo-7,8-dihydropyrido[2,3-d]pyrimidin-2-yl)amino)pyridin-3-yl)piperazin-1-yl)-3-oxopropoxy)ethoxy)ethyl)amino)-N-(4,5-dimethylthiazol-2-yl)-2-methylbenzamide] |  |  | C (protein percentage degradation <50%, and >=30%) | 30 to 50 | 
CC(=O)c1c(C)c2cnc(Nc3ccc(N4CCN(CC(=O)NCCOCCOCCC(=O)Nc5ccccc5C(=O)Nc5ccc(C)cn5)CC4)cn3)nc2n(C2CCCC2)c1=O [CPD-061, 2-(3-(2-(2-(2-(4-(6-((6-Acetyl-8-cyclopentyl-5-methyl-7-oxo-7,8-dihydropyrido[2,3-d]pyrimidin-2-yl)amino)pyridin-3-yl)piperazin-1-yl)acetamido)ethoxy)ethoxy)propanamido)-N-(5-methylpyridin-2-yl)benzamide] |  |  | A (protein percentage degradation >=80%) | 50 to 80 | 
Cc1nc(NC(=O)c2ccccc2NC(=O)CCOCCOCCOCCOCCOCCOCCNC(=O)CN2CCN(Cc3ccc(Nc4ncc(F)c(-c5cc(F)c6nc(C)n(C(C)C)c6c5)n4)nc3)CC2)sc1C [CPD-285, N-(4,5-Dimethylthiazol-2-yl)-2-(1-(4-((6-((5-fluoro-4-(4-fluoro-1-isopropyl-2-methyl-1H-benzo[d]imidazol-6-yl)pyrimidin-2-yl)amino)pyridin-3-yl)methyl)piperazin-1-yl)-2-oxo-6,9,12,15,18,21-hexaoxa-3-azatetracosan-24-amido)benzamide] | D (protein percentage degradation < 30%) | < 30 |  |  | 
CC(=O)c1c(C)c2cnc(Nc3ccc(N4CCN(C(=O)CCOCCOCCC(=O)Nc5ccccc5C(=O)Nc5nc(C)c(C)s5)CC4)cn3)nc2n(C2CCCC2)c1=O [CPD-128, 2-(3-(2-(3-(4-(6-((6-Acetyl-8-cyclopentyl-5-methyl-7-oxo-7,8-dihydropyrido[2,3-d]pyrimidin-2-yl)amino)pyridin-3-yl)piperazin-1-yl)-3-oxopropoxy)ethoxy)propanamido)-N-(4,5-dimethylthiazol-2-yl)benzamide] |  |  | C (protein percentage degradation <50%, and >=30%) |  | 50 to 80
CNC(=O)c1ccc(C)nc1NCCCCCCCNC(=O)CN1CCN(c2ccc(Nc3ncc4c(C)c(C(C)=O)c(=O)n(C5CCCC5)c4n3)nc2)CC1 [CPD-340] |  |  | D (protein percentage degradation <30%) | < 30 | 
CC(=O)c1c(C)c2cnc(Nc3ccc(N4CCN(CC(=O)NCCOCCOCCC(=O)Nc5ccccc5C(=O)Nc5nc(C)ns5)CC4)cn3)nc2n(C2CCCC2)c1=O [CPD-058, 2-(3-(2-(2-(2-(4-(6-((6-Acetyl-8-cyclopentyl-5-methyl-7-oxo-7,8-dihydropyrido[2,3-d]pyrimidin-2-yl)amino)pyridin-3-yl)piperazin-1-yl)acetamido)ethoxy)ethoxy)propanamido)-N-(3-methyl-1,2,4-thiadiazol-5-yl)benzamide] |  |  | D (protein percentage degradation <30%) | < 30 | 
CC(=O)c1c(C)c2cnc(Nc3ccc(N4CCN(CC(=O)NCCCCCNC(=O)c5ccc(C(=O)Nc6ncc(C)s6)c(C)c5)CC4)cn3)nc2n(C2CCCC2)c1=O [CPD-009, N^4-(5-(2-(4-(6-((6-Acetyl-8-cyclopentyl-5-methyl-7-oxo-7,8-dihydropyrido[2,3-d]pyrimidin-2-yl)amino)pyridin-3-yl)piperazin-1-yl)acetamido)pentyl)-2-methyl-N^1-(5-methylthiazol-2-yl)terephthalamide] |  |  | D (protein percentage degradation <30%) | < 30 | 
CC(=O)c1c(C)c2cnc(Nc3ccc(N4CCN(C(=O)CCCCC(=O)Nc5ccccc5C(=O)Nc5nc(C)c(C)s5)CC4)cn3)nc2n(C2CCCC2)c1=O [CPD-156, 2-(6-(4-(6-((6-Acetyl-8-cyclopentyl-5-methyl-7-oxo-7,8-dihydropyrido[2,3-d]pyrimidin-2-yl)amino)pyridin-3-yl)piperazin-1-yl)-6-oxohexanamido)-N-(4,5-dimethylthiazol-2-yl)benzamide] |  |  | D (protein percentage degradation <30%) |  | < 30
